From US7846946B2, “Heteroatom-linked substituted piperidines and derivatives thereof useful as histamine H3 antagonists” (Schering Plough Corporation, priority 2005, dated 2010)

Key:
[1] = molecular target: T1, recombinant human H3 receptor, expressed in HEK-293 cells (Homo sapiens, UniProt Q9Y5N1); experiment: H3-receptor binding assay, recombinant human receptor; conditions: recombinant human receptor assay (HEK-293)
T1 construct: expressed in transfected cells; host or cells: HEK-293 (human embryonic kidney) cells
T1 sequence (Q9Y5N1 whole entry): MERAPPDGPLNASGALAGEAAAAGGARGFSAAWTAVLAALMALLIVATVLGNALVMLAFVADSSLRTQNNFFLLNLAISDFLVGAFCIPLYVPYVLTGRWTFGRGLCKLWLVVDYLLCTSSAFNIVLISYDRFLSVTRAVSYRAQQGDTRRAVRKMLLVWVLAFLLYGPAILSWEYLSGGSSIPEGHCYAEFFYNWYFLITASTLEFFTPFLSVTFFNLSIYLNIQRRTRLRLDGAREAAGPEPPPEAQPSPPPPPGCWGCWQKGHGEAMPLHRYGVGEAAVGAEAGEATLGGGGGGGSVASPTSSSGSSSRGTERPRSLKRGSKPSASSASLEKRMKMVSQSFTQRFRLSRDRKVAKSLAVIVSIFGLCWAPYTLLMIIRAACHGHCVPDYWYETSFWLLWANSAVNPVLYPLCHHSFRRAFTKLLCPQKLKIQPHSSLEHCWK
Method: (§1) General Procedure for H3-Receptor Binding Assay
(§2) The source of the H3 receptors in this experiment was guinea pig brain. Alternatively, the source of H3 receptors was recombinant human receptor, expressed in HEK-293 (human embryonic kidney) cells.
All compounds to be tested were dissolved in DMSO and then diluted into the binding buffer (50 mM Tris, pH 7.5) such that the final concentration was 2 μg/ml with 0.1% DMSO. Membranes were then added (400 μg of protein, 5 μg in the case of recombinant human receptor) to the reaction tubes. The reaction was started by the addition of 3 nM [^3H]R-α-methyl histamine (8.8 Ci/mmol) or 3 nM [^3H]Na^α-methyl histamine (80 Ci/mmol) and continued under incubation at 30° C. for 30 min. Bound ligand was separated from unbound ligand by filtration, and the amount of radioactive ligand bound to the membranes was quantitated by liquid scintillation spectrometry. All incubations were performed in duplicate and the standard error was always less than 10%. Compounds that inhibited more than 70% of the specific binding of radioactive ligand to the receptor were serially diluted to determine a Ki (nM).

[2] = molecular target: T2, H3 receptors (guinea pig brain) (Cavia porcellus, UniProt Q9JI35); experiment: H3-receptor binding assay, guinea pig receptor; conditions: radioligand [3H]R-α-methyl histamine or [3H]Nα-methyl histamine
T2 construct: The brain tissue was homogenized with a solution of 50 mM Tris, pH 7.5; from tissue; host or cells: guinea pig brain membranes
T2 sequence (Q9JI35 whole entry): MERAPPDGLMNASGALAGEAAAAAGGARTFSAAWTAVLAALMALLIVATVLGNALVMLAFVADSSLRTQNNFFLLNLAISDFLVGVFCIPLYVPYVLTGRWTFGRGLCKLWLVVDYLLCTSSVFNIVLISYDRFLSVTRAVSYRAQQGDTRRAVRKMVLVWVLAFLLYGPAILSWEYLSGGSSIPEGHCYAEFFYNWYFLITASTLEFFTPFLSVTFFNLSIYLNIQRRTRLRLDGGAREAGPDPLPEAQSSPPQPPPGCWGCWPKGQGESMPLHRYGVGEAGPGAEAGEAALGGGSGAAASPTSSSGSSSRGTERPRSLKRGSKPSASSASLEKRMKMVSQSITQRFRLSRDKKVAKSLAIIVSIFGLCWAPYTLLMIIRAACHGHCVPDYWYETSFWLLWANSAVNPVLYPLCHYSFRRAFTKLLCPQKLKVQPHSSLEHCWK
Method: as §1, §2
The animals weighed 400-600 g. The brain tissue was homogenized with a solution of 50 mM Tris, pH 7.5. The final concentration of tissue in the homogenization buffer was 10% w/v. The homogenates were centrifuged at 1,000×g for 10 min. in order to remove clumps of tissue and debris. The resulting supernatants were then centrifuged at 50,000×g for 20 min. in order to sediment the membranes, which were next washed three times in homogenization buffer (50,000×g for 20 min. each). The membranes were frozen and stored at −70° C. until needed.
All compounds to be tested were dissolved in DMSO and then diluted into the binding buffer (50 mM Tris, pH 7.5) such that the final concentration was 2 μg/ml with 0.1% DMSO. Membranes were then added (400 μg of protein, 5 μg in the case of recombinant human receptor) to the reaction tubes. […] Bound ligand was separated from unbound ligand by filtration, and the amount of radioactive ligand bound to the membranes was quantitated by liquid scintillation spectrometry. […]

Nc1cc(CN2CCC(C(=O)N3CCC(NCc4ccc(F)cc4F)CC3)CC2)ccn1 [Example 256]
Ki [1]: 0.7 nM

Cc1cc(C(=O)NCc2cccnc2NC2CCN(C(=O)C3CCN(Cc4ccnc(N)c4)CC3)CC2)no1 [Example 11]
Ki [2]: 0.2 nM
